What follows are molecules tested against T1, FGFR-1 (Homo sapiens, UniProt P11362) (assay: FGFR-1 TR-FRET biochemical assay). Details: 0.6 uM ATP, 5 nM FGFR1-GST; bounds given in nM.
T1 construct: GST; made in house
In short: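 FGFR1-GST (5 nM) was incubated with poly GT-biotin (25 nM) and 0.6 uM ATP in HEPES pH 7.5/MgCl2 with 1% DMSO for 1 h at room temperature. Phosphorylation was read by LANCE TR-FRET (Eu-anti-pTyr/SA-APC, 665/615 ratio). Percent inhibition was background-corrected against no-ATP wells, with final compound concentrations of 10 μM–0.128 nM.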

T1 sequence (P11362 22-822): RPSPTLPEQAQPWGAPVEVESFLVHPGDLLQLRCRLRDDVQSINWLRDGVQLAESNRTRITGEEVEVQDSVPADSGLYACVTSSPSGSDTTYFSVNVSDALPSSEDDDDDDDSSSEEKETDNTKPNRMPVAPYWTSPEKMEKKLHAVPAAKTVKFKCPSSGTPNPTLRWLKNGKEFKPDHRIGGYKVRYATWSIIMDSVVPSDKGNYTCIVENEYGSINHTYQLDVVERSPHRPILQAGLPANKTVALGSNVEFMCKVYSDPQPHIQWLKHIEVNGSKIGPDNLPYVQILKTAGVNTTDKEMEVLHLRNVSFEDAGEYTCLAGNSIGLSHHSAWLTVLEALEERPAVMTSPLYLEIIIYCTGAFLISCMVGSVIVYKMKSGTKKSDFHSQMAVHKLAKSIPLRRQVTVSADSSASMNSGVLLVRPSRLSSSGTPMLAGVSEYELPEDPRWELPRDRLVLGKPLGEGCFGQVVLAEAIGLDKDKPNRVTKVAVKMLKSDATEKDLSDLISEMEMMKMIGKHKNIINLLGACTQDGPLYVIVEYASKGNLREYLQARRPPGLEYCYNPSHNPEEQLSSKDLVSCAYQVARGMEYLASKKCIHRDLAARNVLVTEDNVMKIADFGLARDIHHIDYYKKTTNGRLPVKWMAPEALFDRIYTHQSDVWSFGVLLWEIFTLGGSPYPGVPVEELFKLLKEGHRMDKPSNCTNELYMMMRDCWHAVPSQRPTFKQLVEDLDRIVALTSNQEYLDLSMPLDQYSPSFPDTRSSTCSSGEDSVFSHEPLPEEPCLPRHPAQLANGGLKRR

Row | IC50 | Structure (SMILES)
1 | < 10 nM | Nc1ncnn2c(CCCCN3CCOCC3)cc(-c3ccc(NC(=O)Nc4cc(C(F)(F)F)ccc4F)c(F)c3)c12 [Example 224, N-{4-[4-amino-7-(4-morpholin-4-ylbutyl)pyrrolo[2,1-f][1,2,4]triazin-5-yl]-2-fluorophenyl}-N′-[2-fluoro-5-(trifluoromethyl)phenyl]urea]
2 | < 10 nM | Nc1ncnn2c(CCN3CCCOCC3)cc(-c3ccc(NC(=O)Nc4cc(C(F)(F)F)ccc4F)c(F)c3)c12 [Example 226, N-(4-{4-amino-7-[2-(1,4-oxazepan-4-yl)ethyl]pyrrolo[2,1-f][1,2,4]triazin-5-yl}-2-fluorophenyl)-N′-[2-fluoro-5-(trifluoromethyl)phenyl]urea]
3 | < 10 nM | CC(C)(C)c1ccnc(NC(=O)Nc2ccc(-c3cc(CCN4CCOCC4)n4ncnc(N)c34)cc2F)c1 [Example 228, N-{4-[4-amino-7-(2-morpholin-4-ylethyl)pyrrolo[2,1-f][1,2,4]triazin-5-yl]-2-fluorophenyl}-N′-(4-tert-butylpyridin-2-yl)urea]
4 | 10 to 100 nM | Nc1ncnn2c(C3CCN(C(=O)C4CC4)CC3)cc(-c3ccc(NC(=O)Nc4cc(C(F)(F)F)ccc4F)c(Cl)c3)c12 [Example 230, N-(4-{4-amino-7-[1-(cyclopropylcarbonyl)piperidin-4-yl]pyrrolo[2,1-f][1,2,4]triazin-5-yl}-2-chlorophenyl)-N′-[2-fluoro-5-(trifluoromethyl)phenyl]urea]
5 | 10 to 100 nM | Nc1ncnn2c(C3CCN(C(=O)CN4CCOCC4)CC3)cc(-c3ccc(NC(=O)Nc4cc(C(F)(F)F)ccc4F)c(Cl)c3)c12 [Example 231, N-(4-{4-amino-7-[1-(morpholin-4-ylacetyl)piperidin-4-yl]pyrrolo[2,1-f][1,2,4]triazin-3-yl}-2-chlorophenyl)-N′-[2-fluoro-5-(trifluoromethyl)phenyl]urea]
6 | 10 to 100 nM | Nc1ncnn2c(C(=O)CO)cc(-c3ccc(NC(=O)Nc4cc(C(F)(F)F)ccc4F)c(F)c3)c12 [Example 234, N-[4-(4-amino-7-glycoloylpyrrolo[2,1-f][1,2,4]triazin-5-yl)-2-fluorophenyl]-N′-[2-fluoro-5-(trifluoromethyl)phenyl]urea]
7 | 10 to 100 nM | Nc1ncnn2c(C3CCN(C4CC4)CC3)cc(-c3ccc(NC(=O)Nc4cc(C(F)(F)F)ccn4)c(F)c3)c12 [Example 235, N-{4-[4-amino-7-(1-cyclopropylpiperidin-4-yl)pyrrolo[2,1-f][1,2,4]triazin-5-yl]-2-fluorophenyl}-N′-[4-(trifluoromethyl)pyridin-2-yl]urea]
8 | < 10 nM | Nc1ncnn2c(C3CCN(C(=O)CO)CC3)cc(-c3ccc(NC(=O)Nc4cc(C(F)(F)F)ccn4)c(F)c3)c12 [Example 236, N-{4-[4-amino-7-(1-glycoloylpiperidin-4-yl)pyrrolo[2,1-f][1,2,4]triazin-5-yl]-2-fluorophenyl}-N′-[4-(trifluoromethyl)pyridin-2-yl]urea]
9 | < 10 nM | CC(=O)N1CCC(c2cc(-c3ccc(NC(=O)Nc4cc(C(F)(F)F)ccn4)c(F)c3)c3c(N)ncnn23)CC1 [Example 237, N-{4-[7-(1-acetylpiperidin-4-yl)-4-aminopyrrolo[2,1-f][1,2,4]triazin-5-yl]-2-fluorophenyl}-N′-[4-(trifluoromethyl)pyridin-2-yl]urea]
10 | < 10 nM | CN(C)CC(=O)N1CCC(c2cc(-c3ccc(NC(=O)Nc4cc(C(F)(F)F)ccc4F)c(Cl)c3)c3c(N)ncnn23)CC1 [Example 240, N-(4-{4-amino-7-[1-(N,N-dimethylglycyl)piperidin-4-yl]pyrrolo[2,1-f][1,2,4]triazin-5-yl}-2-chlorophenyl)-N′-[2-fluoro-5-(trifluoromethyl)phenyl]urea]
11 | < 10 nM | COCCN1CCC(c2cc(-c3ccc(NC(=O)Nc4cc(C(F)(F)F)ccc4F)c(Cl)c3)c3c(N)ncnn23)CC1 [Example 241, N-(4-{4-amino-7-[1-(2-methoxyethyl)piperidin-4-yl]pyrrolo[2,1-f][1,2,4]triazin-5-yl}-2-chlorophenyl)-N′-[2-fluoro-5-(trifluoromethyl)phenyl]urea]
12 | < 10 nM | Nc1ncnn2c(C3CCNCC3)cc(-c3ccc(NC(=O)Nc4cc(C(F)(F)F)ccc4F)cc3)c12 [Example 242, N-[4-(4-amino-7-piperidin-4-ylpyrrolo[2,1-f][1,2,4]triazin-5-yl)phenyl]-N′-[2-fluoro-5-(trifluoromethyl)phenyl]urea]
13 | 10 to 100 nM | CCOCCN1CCC(c2cc(-c3ccc(NC(=O)Nc4cc(C(F)(F)F)ccc4F)c(Cl)c3)c3c(N)ncnn23)CC1 [Example 243, N-(4-{4-amino-7-[1-(2-ethoxyethyl)piperidin-4-yl]pyrrolo[2,1-f][1,2,4]triazin-5-yl}-2-chlorophenyl)-N′-[2-fluoro-5-(trifluoromethyl)phenyl]urea]
14 | 10 to 100 nM | Nc1ncnn2c(CCN3CCOCC3)cc(-c3ccc(NC(=O)Nc4cc(C(F)(F)F)ccn4)c(F)c3)c12 [Example 250, 1-{4-[4-amino-7-(2-morpholin-4-ylethyl)pyrrolo[2,1-f][1,2,4]triazin-5-yl]-2-fluorophenyl}-3-[4-(trifluoromethyl)pyridin-2-yl]urea]
15 | 10 to 100 nM | CC(O)c1cc(-c2ccc(NC(=O)Nc3cc(C(F)(F)F)ccc3F)c(F)c2)c2c(N)ncnn12 (stereo not shown) [Example 252, N-{4-[4-amino-7-(1-hydroxyethyl)pyrrolo[2,1-f][1,2,4]triazin-5-yl]-2-fluorophenyl}-N′-[2-fluoro-5-(trifluoromethyl)phenyl]urea]
16 | < 10 nM | CC(=O)c1cc(-c2ccc(NC(=O)Nc3cc(C(F)(F)F)ccc3F)c(F)c2)c2c(N)ncnn12 [Example 253, N-[4-(7-acetyl-4-aminopyrrolo[2,1-f][1,2,4]triazin-5-yl)-2-fluorophenyl]-N′-[2-fluoro-5-(trifluoromethyl)phenyl]urea]
17 | > 100 nM | Nc1ncnn2c(C(O)CO)cc(-c3ccc(NC(=O)Nc4cc(C(F)(F)F)ccc4F)c(F)c3)c12 (stereo not shown) [Example 254, N-{4-[4-amino-7-(1,2-dihydroxyethyl)pyrrolo[2,1-f][1,2,4]triazin-5-yl]-2-fluorophenyl}-N′-[2-fluoro-5-(trifluoromethyl)phenyl]urea]
18 | 10 to 100 nM | Nc1ncnn2c(C(O)C(O)CO)cc(-c3ccc(NC(=O)Nc4cc(C(F)(F)F)ccc4F)c(F)c3)c12 (stereo not shown) [Example 255, N-{4-[4-amino-7-(1,2,3-trihydroxypropyl)pyrrolo[2,1-f][1,2,4]triazin-5-yl]-2-flourophenyl}-N′-[2-fluoro-5-(trifluoromethyl)phenyl]urea]
19 | < 10 nM | CC(=O)c1cc(-c2ccc(NC(=O)Nc3cc(C(F)(F)F)ccn3)c(F)c2)c2c(N)ncnn12 [Example 259, N-[4-(7-acetyl-4-aminopyrrolo[2,1-f][1,2,4]triazin-5-yl)-2-fluorophenyl]-N′-[4-(trifluoromethyl)pyridin-2-yl]urea]
20 | > 100 nM | Nc1ncnn2c(C(=O)COCCN3CCOCC3)cc(-c3ccc(NC(=O)Nc4cc(C(F)(F)F)ccc4F)c(F)c3)c12 [Example 260, N-(4-{4-amino-7-[(2-morpholin-4-ylethoxy)acetyl]pyrrolo[2,1-f][1,2,4]triazin-5-yl}-2-fluorophenyl)-N′-[2-fluoro-5-(trifluoromethyl)phenyl]urea]

Same assay, conditions: upper bound of the bin 'greater than 100 nM but less than 1 μM' (lower bound in E1)

Row | IC50 | Structure (SMILES)
21 | < 1000 nM | Nc1ncnn2c(C(O)CO)cc(-c3ccc(NC(=O)Nc4cc(C(F)(F)F)ccc4F)c(F)c3)c12 (stereo not shown) [Example 254, N-{4-[4-amino-7-(1,2-dihydroxyethyl)pyrrolo[2,1-f][1,2,4]triazin-5-yl]-2-fluorophenyl}-N′-[2-fluoro-5-(trifluoromethyl)phenyl]urea]
22 | < 1000 nM | Nc1ncnn2c(C(=O)COCCN3CCOCC3)cc(-c3ccc(NC(=O)Nc4cc(C(F)(F)F)ccc4F)c(F)c3)c12 [Example 260, N-(4-{4-amino-7-[(2-morpholin-4-ylethoxy)acetyl]pyrrolo[2,1-f][1,2,4]triazin-5-yl}-2-fluorophenyl)-N′-[2-fluoro-5-(trifluoromethyl)phenyl]urea]

From US8143393B2, “Substituted 4-amino-pyrrolotriazine derivatives useful for treating hyper-proliferative disorders and diseases associated with angiogenesis” (Bayer HealthCare LLC, priority 2005, dated 2012)
